Results on three compounds are retold here after PubChem BioAssay AID1259407 (Chemical Carcinogenesis Research Information System (CCRIS), 2018).

The source made the active and inactive calls. The rule behind the calls is not given here.

The test system of this data set is CCRIS mutagenicity, Ames/micronucleus/aberration tests. The data set is described as follows: CCRIS mutagenicity studies.
Setting [1] is: Test System: AMES SALMONELLA TYPHIMURIUM, Strain/Indicator: TA98, Metabolic Activation: HAMSTER, LIVER, S-9, AROCLOR 1254 (10%), Method: PREINCUBATION
[2] abbreviates: Test System: AMES SALMONELLA TYPHIMURIUM, Strain/Indicator: TA98, Metabolic Activation: NONE, Method: PREINCUBATION
The mark [3] stands for this setting: Test System: AMES SALMONELLA TYPHIMURIUM, Strain/Indicator: TA98, Metabolic Activation: RAT, LIVER, S-9, AROCLOR 1254 (10%), Method: PREINCUBATION
The mark [4] stands for this setting: Test System: AMES SALMONELLA TYPHIMURIUM, Strain/Indicator: TA100, Metabolic Activation: HAMSTER, LIVER, S-9, AROCLOR 1254 (10%), Method: PREINCUBATION
Setting [5] is: Test System: AMES SALMONELLA TYPHIMURIUM, Strain/Indicator: TA100, Metabolic Activation: NONE, Method: PREINCUBATION
[6] abbreviates: Test System: AMES SALMONELLA TYPHIMURIUM, Strain/Indicator: TA100, Metabolic Activation: RAT, LIVER, S-9, AROCLOR 1254 (10%), Method: PREINCUBATION
[7] abbreviates: Test System: AMES SALMONELLA TYPHIMURIUM, Strain/Indicator: TA1535, Metabolic Activation: HAMSTER, LIVER, S-9, AROCLOR 1254 (10%), Method: PREINCUBATION
[8] abbreviates: Test System: AMES SALMONELLA TYPHIMURIUM, Strain/Indicator: TA1535, Metabolic Activation: NONE, Method: PREINCUBATION
Where [9] appears, read: Test System: AMES SALMONELLA TYPHIMURIUM, Strain/Indicator: TA1535, Metabolic Activation: RAT, LIVER, S-9, AROCLOR 1254 (10%), Method: PREINCUBATION

On to `O=C1c2c(Br)c(Br)c(Br)c(Br)c2C(=O)N1CCN1C(=O)c2c(Br)c(Br)c(Br)c(Br)c2C1=O`, for which the mutagenic call is, setting by setting: under setting [1], “inactive; negative”; under setting [2], “inactive; negative”; under setting [3], “inactive; negative”; under setting [4], “inactive; negative”; under setting [5], “inactive; negative”; under setting [6], “inactive; negative”. Further, the mutagenic call was “inactive; negative” under setting [7]; “inactive; negative” under setting [8]; “inactive; negative” under setting [9]; “inactive; negative” (Test System: AMES SALMONELLA TYPHIMURIUM, Strain/Indicator: TA1537, Metabolic Activation: HAMSTER, LIVER, S-9, AROCLOR 1254 (10%), Method: PREINCUBATION); “inactive; negative” (Test System: AMES SALMONELLA TYPHIMURIUM, Strain/Indicator: TA1537, Metabolic Activation: NONE, Method: PREINCUBATION); “inactive; negative” (Test System: AMES SALMONELLA TYPHIMURIUM, Strain/Indicator: TA1537, Metabolic Activation: RAT, LIVER, S-9, AROCLOR 1254 (10%), Method: PREINCUBATION).

Turning to `N#CC(O)c1ccccc1` (centres undefined), the mutagenic call is, setting by setting: (Test System: AMES SALMONELLA TYPHIMURIUM, Strain/Indicator: TA97, Metabolic Activation: HAMSTER, LIVER, S-9, AROCLOR 1254 (10%), Method: PREINCUBATION) “inactive; negative”; (Test System: AMES SALMONELLA TYPHIMURIUM, Strain/Indicator: TA97, Metabolic Activation: HAMSTER, LIVER, S-9, AROCLOR 1254 (30%), Method: PREINCUBATION) “inactive; negative”; (Test System: AMES SALMONELLA TYPHIMURIUM, Strain/Indicator: TA97, Metabolic Activation: NONE, Method: PREINCUBATION) “inactive; negative”; (Test System: AMES SALMONELLA TYPHIMURIUM, Strain/Indicator: TA97, Metabolic Activation: RAT, LIVER, S-9, AROCLOR 1254 (10%), Method: PREINCUBATION) “inactive; negative”; (Test System: AMES SALMONELLA TYPHIMURIUM, Strain/Indicator: TA97, Metabolic Activation: RAT, LIVER, S-9, AROCLOR 1254 (30%), Method: PREINCUBATION) “inactive; negative”; under setting [1], “inactive; negative”. Besides, the mutagenic call by setting is: (Test System: AMES SALMONELLA TYPHIMURIUM, Strain/Indicator: TA98, Metabolic Activation: HAMSTER, LIVER, S-9, AROCLOR 1254 (30%), Method: PREINCUBATION) “inactive; negative”; under setting [2], “inactive; negative”; under setting [3], “inactive; negative”; (Test System: AMES SALMONELLA TYPHIMURIUM, Strain/Indicator: TA98, Metabolic Activation: RAT, LIVER, S-9, AROCLOR 1254 (30%), Method: PREINCUBATION) “inactive; negative”; under setting [4], “inactive; negative”; (Test System: AMES SALMONELLA TYPHIMURIUM, Strain/Indicator: TA100, Metabolic Activation: HAMSTER, LIVER, S-9, AROCLOR 1254 (30%), Method: PREINCUBATION) “inactive; negative”. Besides, the mutagenic call is “inactive; negative” under setting [5]; “inactive; negative” under setting [6]; “inactive; negative” (Test System: AMES SALMONELLA TYPHIMURIUM, Strain/Indicator: TA100, Metabolic Activation: RAT, LIVER, S-9, AROCLOR 1254 (30%), Method: PREINCUBATION); “inactive; negative” under setting [7]; “inactive; negative” (Test System: AMES SALMONELLA TYPHIMURIUM, Strain/Indicator: TA1535, Metabolic Activation: HAMSTER, LIVER, S-9, AROCLOR 1254 (30%), Method: PREINCUBATION); “inactive; negative” under setting [8]. Also, the mutagenic call is “inactive; negative” under setting [9] and “inactive; negative” (Test System: AMES SALMONELLA TYPHIMURIUM, Strain/Indicator: TA1535, Metabolic Activation: RAT, LIVER, S-9, AROCLOR 1254 (30%), Method: PREINCUBATION).

Take `CC(=O)N(O)CCCCCNC(=O)CCC(=O)N(O)CCCCCNC(=O)CCC(=O)N(O)CCCCCN`: the mutagenic call (Test System: MOUSE LYMPHOMA, Strain/Indicator: L5178Y (TK+/TK-), Metabolic Activation: NONE, Method: SUSPENSION/PLATE) was “active; positive. reevaluation of results: positive” and the mutagenic call (Test System: MOUSE LYMPHOMA, Strain/Indicator: L5178Y (TK+/TK-), Metabolic Activation: RAT, LIVER, S-9, AROCLOR 1254, Method: SUSPENSION/PLATE) is “active; positive. reevaluation of results: positive”.
